Columns and labels:
oilseed rape = assay: Test C postemergence; format: in vivo, Brassica napus; conditions: for plant injury at 16 g/ha / plant injury at 125 g/ha / plant injury at 62 g/ha: Brassica napus, post-emergence; for plant injury at 16 g/ha: 16 g ai/ha, 0 is no effect, 100 is complete control, read-out: Plant response rating (0 to 100), Oilseed Rape; for plant injury at 125 g/ha: 125 g ai/ha; for plant injury at 125 g/ha / plant injury at 62 g/ha: read-out: Plant response rating, Oilseed Rape; for plant injury at 62 g/ha: Postemergence, 62 g ai/ha
Procedure, shortened: (§1)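 Injury was assessed visually against controls 13 to 15 days after application, with 0 meaning no effect and 100 full control; missing entries are shown as a dash. Preemergence sprays hit seeded loam–sand soil, postemergence sprays hit 1- to 4-leaf plants.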

barnyardgrass = assay: Test A postemergence; format: in vivo, Echinochloa crus-galli; conditions: 0 to 100 scale where 0 is no effect and 100 is complete control
Procedure, shortened: (§2)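 Injury scores run from 0, no effect, to 100, complete control, judged by eye against untreated plants roughly 10 days after treatment. Chemicals carried a surfactant in a non-phytotoxic solvent and went onto loam–sand soil preemergence or onto one- to two-leaf seedlings postemergence.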

waterhemp = assay: Test C postemergence; format: in vivo, Amaranthus rudis; conditions: for pest or weed control at 16 g/ha / pest or weed control at 125 g/ha / pest or weed control at 62 g/ha: Amaranthus tuberculatus, post-emergence; for pest or weed control at 16 g/ha: 16 g ai/ha, 0 is no effect, 100 is complete control, read-out: Plant response rating (0 to 100), Waterhemp; for pest or weed control at 125 g/ha: 125 g ai/ha; for pest or weed control at 125 g/ha / pest or weed control at 62 g/ha: read-out: Plant response rating, Waterhemp; for pest or weed control at 62 g/ha: Postemergence, 62 g ai/ha
Procedure, shortened: as §1

johnsongrass = assay: Test C postemergence; format: in vivo, Sorghum halepense; conditions: for pest or weed control at 16 g/ha / pest or weed control at 125 g/ha / pest or weed control at 62 g/ha: Sorghum halepense, post-emergence; for pest or weed control at 16 g/ha: 16 g ai/ha, 0 is no effect, 100 is complete control, read-out: Plant response rating (0 to 100), Johnsongrass; for pest or weed control at 125 g/ha: 125 g ai/ha; for pest or weed control at 125 g/ha / pest or weed control at 62 g/ha: read-out: Plant response rating, Johnsongrass; for pest or weed control at 62 g/ha: Postemergence, 62 g ai/ha
Procedure, shortened: as §1

corn [1] = assay: Test A postemergence; format: in vivo, Zea mays; conditions: 0 to 100 scale where 0 is no effect and 100 is complete control; for plant injury at 125 g/ha: 125 g ai/ha, read-out: Corn plant response rating
Procedure, shortened: as §2

giant foxtail [2] = assay: Test C postemergence; format: in vivo, Setaria faberii; conditions: Setaria faberi, post-emergence; for pest or weed control at 16 g/ha: 16 g ai/ha, 0 is no effect, 100 is complete control, read-out: Plant response rating (0 to 100), Foxtail, Giant; for pest or weed control at 125 g/ha: 125 g ai/ha; for pest or weed control at 125 g/ha / pest or weed control at 62 g/ha: read-out: Plant response rating, Foxtail, Giant; for pest or weed control at 62 g/ha: Postemergence, 62 g ai/ha
Procedure, shortened: as §1

morningglory = assay: Test C postemergence; format: in vivo, Ipomoea coccinea; conditions: for pest or weed control at 16 g/ha / pest or weed control at 125 g/ha / pest or weed control at 62 g/ha: Ipomoea, post-emergence; for pest or weed control at 16 g/ha: 16 g ai/ha, 0 is no effect, 100 is complete control, read-out: Plant response rating (0 to 100), Morningglory; for pest or weed control at 125 g/ha: 125 g ai/ha; for pest or weed control at 125 g/ha / pest or weed control at 62 g/ha: read-out: Plant response rating, Morningglory; for pest or weed control at 62 g/ha: Postemergence, 62 g ai/ha
Procedure, shortened: as §1

Heteranthera limosa = assay: Test B flooded paddy test; format: in vivo; conditions: Heteranthera limosa, Flood, 250 g ai/ha; 0 to 100 scale where 0 is no effect and 100 is complete control; read-out: Plant response rating, Ducksalad
Procedure, shortened: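 Scores from 0 (no effect) to 100 (complete control) are visual comparisons with controls, taken 13 to 15 days after compound was applied into floodwater 3 cm deep around 2-leaf plants.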

pigweed = assay: Test C postemergence; format: in vivo, Amaranthus retroflexus; conditions: for pest or weed control at 16 g/ha / pest or weed control at 125 g/ha / pest or weed control at 62 g/ha: Amaranthus retroflexus, post-emergence; for pest or weed control at 16 g/ha: 16 g ai/ha, 0 is no effect, 100 is complete control, read-out: Plant response rating (0 to 100), Pigweed; for pest or weed control at 125 g/ha: 125 g ai/ha; for pest or weed control at 125 g/ha / pest or weed control at 62 g/ha: read-out: Plant response rating, Pigweed; for pest or weed control at 62 g/ha: Postemergence, 62 g ai/ha
Procedure, shortened: as §1

giant foxtail [3] = assay: Test A postemergence; format: in vivo, Setaria faberii; conditions: 0 to 100 scale where 0 is no effect and 100 is complete control
Procedure, shortened: as §2

velvetleaf = assay: Test C postemergence; format: in vivo, Abutilon theophrasti; conditions: for pest or weed control at 16 g/ha / pest or weed control at 125 g/ha / pest or weed control at 62 g/ha: Abutilon theophrasti, post-emergence; for pest or weed control at 16 g/ha: 16 g ai/ha, 0 is no effect, 100 is complete control, read-out: Plant response rating (0 to 100), Velvetleaf; for pest or weed control at 125 g/ha: 125 g ai/ha; for pest or weed control at 125 g/ha / pest or weed control at 62 g/ha: read-out: Plant response rating, Velvetleaf; for pest or weed control at 62 g/ha: Postemergence, 62 g ai/ha
Procedure, shortened: as §1

corn [4] = assay: Test C postemergence; format: in vivo, Zea mays; conditions: Zea mays, post-emergence; for plant injury at 16 g/ha: 16 g ai/ha, 0 is no effect, 100 is complete control, read-out: Plant response rating (0 to 100), Corn; for Corn plant response rating (crop injury, 0 = no effect, 100 = complete kill) at 125 g/ha: 125 g ai/ha; for Corn plant response rating (crop injury, 0 = no effect, 100 = complete kill) at 62 g/ha: Postemergence, 62 g ai/ha
Procedure, shortened: as §1

[5] = postemergence, visual rating, scale 0 to 100 (0 no effect, 100 complete control)
[6] = scale 0 to 100 (0 no effect, 100 complete control)
[7] = Zea mays, post-emergence, 240 h
[8] = 31 g ai/ha, postemergence, visual rating, scale 0 to 100 (0 no effect, 100 complete control), 13 to 15 days

Structure (SMILES)	plant injury at 16 g/ha (oilseed rape; postemergence) [%]	plant injury at 125 g/ha (oilseed rape; [5]) [%]	plant injury at 62 g/ha (oilseed rape; [6]) [%]	pest or weed control at 16 g/ha (waterhemp; postemergence) [%]	pest or weed control at 125 g/ha (waterhemp; [5]) [%]	pest or weed control at 62 g/ha (waterhemp; [6]) [%]	pest or weed control at 16 g/ha (johnsongrass; postemergence) [%]	pest or weed control at 125 g/ha (johnsongrass; [5]) [%]	pest or weed control at 62 g/ha (johnsongrass; [6]) [%]	plant injury at 125 g/ha (corn [1]; [7]) [%]	pest or weed control at 16 g/ha (giant foxtail [2]; postemergence) [%]	pest or weed control at 125 g/ha (giant foxtail [2]; [5]) [%]	pest or weed control at 62 g/ha (giant foxtail [2]; [6]) [%]	pest or weed control at 16 g/ha (morningglory; postemergence) [%]	pest or weed control at 125 g/ha (morningglory; [5]) [%]	pest or weed control at 62 g/ha (morningglory; [6]) [%]	pest or weed control at 250 g/ha (Heteranthera limosa) [%]	pest or weed control at 16 g/ha (pigweed; postemergence) [%]	pest or weed control at 125 g/ha (pigweed; [5]) [%]	pest or weed control at 62 g/ha (pigweed; [6]) [%]	other results
N#Cc1cccc(Oc2ncc(Cl)cn2)c1-n1cc(SC(F)(F)F)cn1 [Compound 134, 3-[(5-chloro-2-pyrimidinyl)oxy]-2-[4-(trifluoromethylthio)-1-pyrazolyl]benzonitrile]	5	60	70	55	85	60	5	15	5	40	5	5	5	70	95	85	30	75	85	85	Barnyardgrass plant response rating (barnyardgrass; 125 g ai/ha): 80; Plant response rating, Barnyardgrass (barnyardgrass; 500 g ai/ha): 90; Plant response rating, Corn (corn [1]; 500 g ai/ha): 60; Foxtail, Giant plant response rating (giant foxtail [3]; 125 g ai/ha): 70; Plant response rating, Foxtail, Giant (giant foxtail [3]; 500 g ai/ha): 100; pest or weed control at 16 g/ha (velvetleaf; postemergence): 30%; pest or weed control at 125 g/ha (velvetleaf; [5]): 55%; pest or weed control at 62 g/ha (velvetleaf; [6]): 50%; plant injury at 16 g/ha (corn [4]; postemergence): 5%; Corn plant response rating (crop injury, 0 = no effect, 100 = complete kill) at 125 g/ha (corn [4]; [5]): 5%; Corn plant response rating (crop injury, 0 = no effect, 100 = complete kill) at 62 g/ha (corn [4]; [6]): 10%
FC(F)c1cn(-c2ccccc2Oc2ncc(Cl)cn2)nn1 [Compound 147, 5-chloro-2-[2-[4-(difluoromethyl)-1H-1,2,3-triazol-1-yl]phenoxy]pyrimidine]	25	95	75	40	70	85	5	10	5	40	0	50	20	70	80	75	80	35	85	75	Oilseed Rape plant response rating (oilseed rape; [8]): 40; pest or weed control at 125 g/ha (barnyardgrass; Echinochloa crus-galli, post-emergence, 240 h, 125 g ai/ha, read-out: Barnyardgrass plant response rating): 90%; pest or weed control at 500 g/ha (barnyardgrass; Echinochloa crus-galli, post-emergence, 240 h, 500 g ai/ha, read-out: Plant response rating, Barnyardgrass): 90%; Waterhemp plant response rating (waterhemp; [8]): 55; Johnsongrass plant response rating (johnsongrass; [8]): 5; Corn plant response rating (crop injury, 0 = no effect, 100 = complete kill) at 500 g/ha (corn [1]; Zea mays, post-emergence, 240 h, 500 g ai/ha): 90%; pest or weed control at 31 g/ha (giant foxtail [2]; 31 g ai/ha, postemergence, visual rating, scale 0 to 100 (0 no effect, 100 complete control), 13 to 15 days, read-out: Foxtail, Giant plant response rating): 0%; Morningglory plant response rating (morningglory; [8]): 70; Pigweed plant response rating (pigweed; [8]): 60; pest or weed control at 125 g/ha (giant foxtail [3]; Setaria faberi, post-emergence, 240 h, 125 g ai/ha, read-out: Foxtail, Giant plant response rating): 90%; pest or weed control at 500 g/ha (giant foxtail [3]; Setaria faberi, post-emergence, 240 h, 500 g ai/ha, read-out: Plant response rating, Foxtail, Giant): 90%; Velvetleaf plant response rating (velvetleaf; [8]): 70; pest or weed control at 16 g/ha (velvetleaf; postemergence): 55%; pest or weed control at 125 g/ha (velvetleaf; [5]): 75%; pest or weed control at 62 g/ha (velvetleaf; [6]): 85%; plant injury at 16 g/ha (corn [4]; postemergence): 5%; plant injury at 31 g/ha (corn [4]; 31 g ai/ha, postemergence, visual rating, scale 0 to 100 (0 no effect, 100 complete control), 13 to 15 days, read-out: Corn plant response rating): 5%; Corn plant response rating (crop injury, 0 = no effect, 100 = complete kill) at 125 g/ha (corn [4]; [5]): 10%; Corn plant response rating (crop injury, 0 = no effect, 100 = complete kill) at 62 g/ha (corn [4]; [6]): 5%

— patent US9695155B2, “Herbicidal substituted pyrimidinyloxy benzene compounds” (E. I. DU PONT DE NEMOURS AND COMPANY, priority 2013, dated 2017)
